Experimental findings from PubChem BioAssay (NCI) are described below.

SMILES strings stand for the structures.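 Briefly, cells in 96-well plates were exposed to five compound concentrations for 48 h, and endpoints were estimated by linear interpolation. Abbreviation: GI50, concentration required for 50% inhibition of growth. Definition used: TGI = concentration required for complete inhibition of growth.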

Among the test systems are A498 renal; A549 NSCLC; BT-549 breast; KM12 colon; RPMI-8226 leukemia; SF-268 CNS; SF-539 CNS; SK-MEL-28 melanoma; SW-620 colon; U251 CNS.
What all share (test): NCI tumour cell line growth inhibition, 48 h

Turning to `COC(=O)c1n[nH]c(C)c1N=NN(C)CCC#N`, the TGI was more than 100 µM with A498 renal; more than 100 µM in the experiment with A549 NSCLC; 28.6 µM in the experiment on BT-549 breast; 51.4 µM with KM12 colon; 34.9 µM in the experiment on RPMI-8226 leukemia; 50 µM in the experiment on SF-268 CNS. The TGI was 30.3 µM in the experiment with SF-539 CNS, more than 100 µM with SK-MEL-28 melanoma, 34 µM in the experiment on SW-620 colon and 41.5 µM in the experiment with U251 CNS.

`CC(C)(Br)C(=O)N1CCN(C(c2ccccc2)c2ccccc2)CC1`: the TGI with A498 renal was more than 100 µM; in the experiment with A549 NSCLC, more than 100 µM; in the experiment with BT-549 breast, more than 100 µM; with KM12 colon it was 31.8 µM; in the experiment on SF-268 CNS it was more than 100 µM; in the experiment with SF-539 CNS, more than 100 µM. Moreover, the TGI with SK-MEL-28 melanoma, with SW-620 colon and with U251 CNS was more than 100 µM throughout.

As to `Fc1cc2[nH]ncc2c2c3c(c(-c4cn[nH]c4C(F)(F)F)nc12)CCCC3`, the GI50 is 1.56 µM with A498 renal; 2.06 µM in the experiment on A549 NSCLC; 1.38 µM in the experiment on BT-549 breast; 2.13 µM in the experiment on KM12 colon; 1.56 µM in the experiment on RPMI-8226 leukemia; 1.97 µM in the experiment with SF-268 CNS. In addition, the GI50 is 1.29 µM with SF-539 CNS, 1.41 µM in the experiment with SK-MEL-28 melanoma, 1.36 µM in the experiment with SW-620 colon and 2.57 µM in the experiment on U251 CNS. Also, the TGI is 3.09 µM in the experiment with A498 renal; more than 100 µM in the experiment on A549 NSCLC; 2.96 µM with BT-549 breast; 15.3 µM with KM12 colon; more than 100 µM in the experiment with RPMI-8226 leukemia; 5.86 µM in the experiment with SF-268 CNS. Further, the TGI is 3.06 µM in the experiment on SF-539 CNS, 5.35 µM in the experiment on SK-MEL-28 melanoma, more than 100 µM in the experiment on SW-620 colon and more than 100 µM in the experiment with U251 CNS.

With `CC(C)c1[nH]nc(C(N)=O)c1N=NN(C)C`, the TGI with A498 renal, in the experiment with A549 NSCLC, in the experiment with BT-549 breast, with KM12 colon, in the experiment on RPMI-8226 leukemia and in the experiment on SF-268 CNS was more than 100 µM in each case. For the same compound, the TGI in the experiment on SF-539 CNS, in the experiment with SK-MEL-28 melanoma, in the experiment on SW-620 colon and in the experiment on U251 CNS was more than 100 µM throughout.

As to `CC(N)C(Cc1ccc(Cl)cc1)c1ccc(Cl)cc1` (stereo not drawn), the GI50 in the experiment with A498 renal is 15.1 µM; with A549 NSCLC, 14 µM; with BT-549 breast, 13.7 µM; with KM12 colon, 8.48 µM; with RPMI-8226 leukemia it was 6.48 µM; in the experiment with SF-268 CNS, 11.4 µM. Also, the GI50 is 13.3 µM in the experiment on SF-539 CNS, 3.86 µM with SK-MEL-28 melanoma, 4.46 µM with SW-620 colon and 12.3 µM with U251 CNS. For the same compound, the TGI with A498 renal worked out at 30.7 µM; in the experiment with A549 NSCLC, 29.4 µM; in the experiment with BT-549 breast, 28.1 µM; in the experiment on KM12 colon, 22.6 µM; in the experiment on RPMI-8226 leukemia it was 22.2 µM; in the experiment with SF-268 CNS it was 26.5 µM. For the same compound, the TGI is 26.8 µM with SF-539 CNS, 15.9 µM in the experiment on SK-MEL-28 melanoma, 16.9 µM in the experiment on SW-620 colon and 25.9 µM in the experiment with U251 CNS.

Take `CCN(Cc1ccc(C)cc1)c1ccc(CO)c(Cl)c1`: the GI50 is 0.0398 µM with A498 renal; 1.55 µM with A549 NSCLC; 5 µM with BT-549 breast; 14.6 µM in the experiment with KM12 colon; 3.32 µM in the experiment with RPMI-8226 leukemia; 15 µM in the experiment on SF-268 CNS. For the same compound, the GI50 in the experiment on SF-539 CNS is 14.2 µM; with SK-MEL-28 melanoma, 13.3 µM; with SW-620 colon, 0.763 µM; with U251 CNS, 0.867 µM. Also, the TGI is 0.178 µM with A498 renal; 16.2 µM with A549 NSCLC; 19 µM with BT-549 breast; 29.6 µM in the experiment with KM12 colon; 30.6 µM with RPMI-8226 leukemia; 30.3 µM in the experiment on SF-268 CNS. For the same compound, the TGI in the experiment with SF-539 CNS worked out at 28.3 µM; with SK-MEL-28 melanoma, 26.2 µM; with SW-620 colon, 16.5 µM; with U251 CNS it was 14.5 µM.

`O=C1CSCc2sccc21`: the TGI in the experiment with A498 renal, in the experiment on A549 NSCLC, in the experiment with BT-549 breast, in the experiment on KM12 colon, in the experiment with SF-268 CNS and in the experiment on SF-539 CNS was more than 100 µM throughout. Moreover, the TGI in the experiment with SK-MEL-28 melanoma, with SW-620 colon and in the experiment on U251 CNS was more than 100 µM throughout.

For the compound `Cc1cc2nc3c4cc(O)ccc4n(CCN(C)C)c3nc2cc1C`, the GI50 in the experiment on A498 renal is 0.403 µM; in the experiment with A549 NSCLC, 0.78 µM; in the experiment with BT-549 breast, 2.03 µM; with KM12 colon, 1.38 µM; with RPMI-8226 leukemia, 0.417 µM; in the experiment on SF-268 CNS it was 1.25 µM. Also, the GI50 in the experiment on SF-539 CNS was 0.519 µM; in the experiment on SK-MEL-28 melanoma it was 1.56 µM; in the experiment on SW-620 colon it was 0.404 µM; in the experiment with U251 CNS it was 0.747 µM. Besides, the TGI with A498 renal came out at 2.04 µM; in the experiment on A549 NSCLC, 5.07 µM; with BT-549 breast, 6.27 µM; with KM12 colon it was 7.8 µM; with RPMI-8226 leukemia it was 2.63 µM; in the experiment on SF-268 CNS, 5.89 µM. Besides, the TGI was determined as 2.09 µM with SF-539 CNS, 3.16 µM in the experiment on SK-MEL-28 melanoma, 1.8 µM in the experiment with SW-620 colon and 4.46 µM in the experiment on U251 CNS.

Consider `COc1ccc2c(c1OC)C[C@@H]1c3c(cc4c(c3-2)OCO4)CCN1C`, for which the TGI was 63.5 µM in the experiment on A498 renal; more than 100 µM with A549 NSCLC; more than 100 µM in the experiment on BT-549 breast; more than 100 µM in the experiment with KM12 colon; 42.9 µM in the experiment with RPMI-8226 leukemia; more than 100 µM in the experiment on SF-268 CNS. Moreover, the TGI is 50 µM in the experiment with SF-539 CNS, more than 100 µM in the experiment on SK-MEL-28 melanoma, more than 100 µM in the experiment with SW-620 colon and more than 100 µM in the experiment on U251 CNS.

Turning to `COC[C@@H](N=C1NC(=O)/C(=C/c2ccc3ncccc3c2)S1)c1ccccc1`, the GI50 with A498 renal was 4.25 µM; in the experiment with A549 NSCLC, 6.72 µM; in the experiment with BT-549 breast, 7.85 µM; in the experiment on KM12 colon, 10.8 µM; with RPMI-8226 leukemia, 6.13 µM; in the experiment with SF-268 CNS, 11.8 µM. Moreover, the GI50 in the experiment with SF-539 CNS was 7.36 µM; with SK-MEL-28 melanoma, 18.8 µM; in the experiment with SW-620 colon, 8.91 µM; in the experiment on U251 CNS, 4.32 µM. Moreover, the TGI in the experiment with A498 renal is 12.5 µM; in the experiment on A549 NSCLC, more than 25 µM; in the experiment on BT-549 breast, more than 25 µM; with KM12 colon, more than 25 µM; in the experiment on RPMI-8226 leukemia it was 20.7 µM; with SF-268 CNS, more than 25 µM. The TGI with SF-539 CNS is more than 24 µM; in the experiment on SK-MEL-28 melanoma, more than 25 µM; with SW-620 colon, more than 25 µM; with U251 CNS, more than 25 µM.
